A short description of data set [1]: Caco-2 cell monolayer transmembrane transport (unidirectional and bidirectional). Particulars: human, Caco-2. Background: Passage across Caco-2 layers is used to estimate intestinal permeability.
Protocol: (§2) Wherein dQ is an accumulated penetration amount of a drug receiving pond with a measure unit pmol; dt is incubation time with a measure unit min; A is a diffusion area with a measure unit cm^2; C0 is an initial administration concentration of an administrating pond with a measure unit μmol. L^−1; Papp has a measure unit cm/s.
(§3) An evaluation objective of the bidirectional transport is to preliminary observe that the transmembrane transport of the object to be tested has active transport procedure mediated by an efflux transporter.
For data set [2], the system named is Caco-2 cell monolayer. The data set is described as above. Particulars: for Papp (*10^−6)A→B: Caco-2, A→B; for Papp (*10^−6)A→B / Papp (*10^−6)B→A: 90 min incubation; for Papp (*10^−6)B→A: Caco-2, B→A; for Papp (B→A)/Papp (A→B): Caco-2 efflux ratio, >2 suggests efflux transporter.
Protocol: as §2, §3
In data set [3] the test system is K562. In words: Inhibition of cell proliferation, CTG method, 72 hours. It counts as cell-based. Particulars: K562 cells. As to the method: (§1) Cells are cultured under a complete culture medium; when cells are attached to the wall, drug of different concentrations is added in each tumor cell line for treatment, and a positive control, a blank control and a solvent control are set. Cells are incubated for 72 hours and then CTG method is used for detection.

Data set [4] has as its system KU812. The data set is described as above. It counts as cell-based. Particulars: KU812 cells. The procedure: as §1
The subject of data set [5] is PC-3. The description is as above. It counts as cell-based. Particulars: PC-3 cells. As to the method:
as §1

Data set [6] has as its system SUP-B15. The description is as above. It counts as cell-based. Particulars: SUP-B15 cells. The procedure: as §1
The nature of data set [7]: Absolute bioavailability, intravenous vs intragastric administration. It counts as in vivo. Particulars: male SD rat, intragastric vs tail intravenous injection. As to the method: Animal: male SD rat Groups of the experiment: intravenous injection group and oral administration group, four rats being provided for each rat Administration manner: tail intravenous injection, intragastric administration Data processing: an area under a curve is calculated for intravenous injection and oral administration by using a trapezoidal method, and a bioavailability is calculated by using the following formula: […]

Data set [8] has as its system Caco-2 cell monolayer.
Protocol: as §2, §3

Like-named read-outs stand apart in the source and are kept apart here.

For the compound `CCN[C@H]1C[C@H](C)S(=O)(=O)c2sc(S(=O)(=O)NCCOCC(COCCNS(=O)(=O)c3cc4c(s3)S(=O)(=O)[C@@H](C)C[C@@H]4NCC)(COCCNS(=O)(=O)c3cc4c(s3)S(=O)(=O)[C@@H](C)C[C@@H]4NCC)COCCNS(=O)(=O)c3cc4c(s3)S(=O)(=O)[C@@H](C)C[C@@H]4C)cc21` [DZA-06, Four-Branch Ethyleneglycol-dorzolamide Conjugate], in data set [1], the Papp A→B (commonly how fast a substance crosses the layer from the apical side) at 90 min was determined as 8.86 ± 0.51 ×10⁻⁶ cm/s; the Papp B→A – broadly, the apparent permeability from the basolateral to the apical side of a cell layer – at 90 min is 18.1 ± 0.32 ×10⁻⁶ cm/s; the efflux ratio (as a rule, a quotient of directional permeabilities that is used to spot active efflux) at 90 min stood at 2.05.
On to `CCN[C@H]1C[C@H](C)S(=O)(=O)c2sc(S(=O)(=O)NCCOCCOCCOCCOCCOCCOCCOCCOCCOCCOCCOCCNS(=O)(=O)c3cc4c(s3)S(=O)(=O)[C@@H](C)C[C@@H]4NCC)cc21` [DZA-03, Double End Substituted Odecylethyleneglycol-dorzolamide], for which, in data set [2], the “Papp (*10^−6)A→B” value is given as 8.96 ± 0.35 *10^−6 cm/s, the “Papp (*10^−6)B→A” value is 23.67 ± 0.45 *10^−6 cm/s and the “Papp (B→A)/Papp (A→B)” value was 2.64.
As to `Cc1nc(Nc2ncc(C(=O)Nc3c(C)cccc3Cl)s2)cc(N2CCN(CCOCCOCCOCCOCCOCCN3CCN(c4cc(Nc5ncc(C(=O)Nc6c(C)cccc6Cl)s5)nc(C)n4)CC3)CC2)n1` [DSTN-42, Double End-substituted Tetraethylene Glycol-dasatinib], in data set [3], the IC50 – broadly, the midpoint of a concentration-inhibition curve – worked out at 0.5 nM and the Maximum inhibition rate amounted to 80.34%. Moreover, in data set [4], the IC50 amounted to 0.79 nM and the Maximum inhibition rate is recorded as 96.91%. This compound also yielded a Maximum inhibition rate in data set [5] of 30.97%. In data set [6], the IC50 was 50 nM and the Maximum inhibition rate amounted to 93.36%. In data set [2], the “Papp (*10^−6)A→B” value is listed as 4.57 ± 0.87 *10^−6 cm/s, the “Papp (*10^−6)B→A” value is reported as 11.43 ± 0.72 *10^−6 cm/s and the “Papp (B→A)/Papp (A→B)” value came out at 2.50.
Regarding `CN(C)CCc1c[nH]c2ccc(CS(=O)(=O)N(C)CCOCCOCCN(C)S(=O)(=O)Cc3ccc4[nH]cc(CCN(C)C)c4c3)cc12` [SMQT-03, Double End-substituted Triethylene Glycol-sumatriptan], in data set [7], the absolute bioavailability amounted to 25%. Moreover, in data set [8], the “Papp (*10^−6)A→B” value is listed as 6.25 ± 0.51 *10^−6 cm/s and the “Papp (*10^−6)B→A” value was 11.06 ± 0.21 *10^−6 cm/s.
For “Single End Substituted Pentaethyleneglycol-dorzolamide [DZA-01]”, in data set [2], the “Papp (*10^−6)A→B” value is 11.54 ± 0.36 *10^−6 cm/s, the “Papp (*10^−6)B→A” value is listed as 15.50 ± 0.06 *10^−6 cm/s and the “Papp (B→A)/Papp (A→B)” value is reported as 1.34.
`CN(C)CCc1c[nH]c2ccc(CS(=O)(=O)N(C)CCOCCOCCOCCOCCN(C)S(=O)(=O)Cc3ccc4[nH]cc(CCN(C)C)c4c3)cc12` [SMQT-02, Double End-substituted Pentaethyleneglycol-sumatriptan] came in with an absolute bioavailability in data set [7] of 23%. For the same compound, in data set [8], the “Papp (*10^−6)A→B” value is given as 9.87 ± 0.03 *10^−6 cm/s and the “Papp (*10^−6)B→A” value is recorded as 14.52 ± 0.12 *10^−6 cm/s.
With `Cc1nc(Nc2ncc(C(=O)Nc3c(C)cccc3Cl)s2)cc(N2CCN(CCOCCOCCOCCOCCOCCOCCOCCN3CCN(c4cc(Nc5ncc(C(=O)Nc6c(C)cccc6Cl)s5)nc(C)n4)CC3)CC2)n1` [DSTN-62, Double Endhexaethylene Glycol-dasatinib], in data set [3], the half-inhibitory concentration (IC50) was 0.34 nM and the Maximum inhibition rate is recorded as 81.76%. In data set [4], this compound gave a half-inhibitory concentration (IC50) of 0.49 nM and a Maximum inhibition rate of 96.00%. The Maximum inhibition rate in data set [5] turned out to be 29.74%. In data set [6], this compound had an IC50 of 60 nM and a Maximum inhibition rate of 81.47%. Besides, in data set [2], the “Papp (*10^−6)A→B” value is listed as 6.44 ± 0.11 *10^−6 cm/s, the “Papp (*10^−6)B→A” value was 15.01 ± 0.59 *10^−6 cm/s and the “Papp (B→A)/Papp (A→B)” value amounted to 2.33.
As to “Double End Substituted Hexaethyleneglycol-dorzolamide [DZA-02]”, in data set [2], the “Papp (*10^−6)A→B” value is 12.32 ± 0.34 *10^−6 cm/s, the “Papp (*10^−6)B→A” value was 25.50 ± 1.21 *10^−6 cm/s and the “Papp (B→A)/Papp (A→B)” value was found to be 2.07.
For `CN(C)CCc1c[nH]c2ccc(CS(=O)(=O)N(C)CCOCCOCCOCCOCCOCCN(C)S(=O)(=O)Cc3ccc4[nH]cc(CCN(C)C)c4c3)cc12` [SMQT-01, Double End-substituted Hexaethyleneglycol-sumatriptan], the bioavailability (commonly the share of a dose that reaches the circulation, judged against a reference dose that is usually intravenous) in data set [7] (blood, oral) stood at 17%. In data set [1], the apical-to-basolateral permeability (Papp A→B) at 90 min came out at 10.6 ± 0.36 ×10⁻⁶ cm/s, the Papp B→A at 90 min is 15.5 ± 0.06 ×10⁻⁶ cm/s and the efflux ratio at 90 min was found to be 1.47.
